Several values for one entry are separate records, joined by “and”; a condition that tells them apart may be missing. Equal values may be shown once.
How the values were obtained:
[1] = system: HIV-1 recombinant strains resistant to NRTIs, NNRTIs, INSTIs, PIs or MIs; type: cell-based
Cytotoxicity assay [2] = type: cell-based; details: human, Huh-7 cells
Cytotoxicity assay [3] = type: cell-based, human; details: human, stimulated PBMCs
Cytotoxicity assay [4] = type: cell-based; details: human, primary human hepatocytes
Cytotoxicity assay [5] = type: cell-based; details: human, quiescent PBMCs
Cytotoxicity assay [6] = type: cell-based; details: human, Gal-PC-3 cells
Cytotoxicity assay [7] = type: cell-based; details: human, primary CD4+ T-lymphocytes
Cytotoxicity assay [8] = type: cell-based; details: human, MRC-5 cells
Cytotoxicity assay [9] = type: cell-based; details: human, MT-4 cells
Cytotoxicity assay [10] = type: cell-based; details: human, Gal-HepG2 cells
Cytotoxicity assay [11] = type: cell-based; details: human, monocyte-derived macrophages

For `O=C1Nc2ccc(Cl)cc2[C@@](C#CC2CC2)(C(F)(F)F)O1` [EFV, efavirenz, reference compound], the Fold resistance [1] was >22.5 (3).
`COc1ccc(C[C@H](N)C(=O)N[C@H]2[C@@H](O)[C@H](n3cnc4c(N(C)C)ncnc43)O[C@@H]2CO)cc1` [Puromycin, reference compound] gave a CC50 (Cytotoxicity assay [2]) of 0.5 µM, a CC50 (Cytotoxicity assay [3]) of 0.2 ± 0.1 µM and a CC50 (Cytotoxicity assay [4]) of 1.6 ± 0.6 µM. For the same compound, the CC50 (Cytotoxicity assay [5]) was 0.6 ± 1.5 µM, the CC50 (Cytotoxicity assay [6]) was 0.4 µM and the CC50 (Cytotoxicity assay [7]) was 0.2 ± 0.1 µM. For the same compound, the CC50 (Cytotoxicity assay [8]) was 0.3 µM, the CC50 (Cytotoxicity assay [9]) was 0.2 ± 0.1 µM and the CC50 (Cytotoxicity assay [10]) was 1 ± 1.7 µM. It also gave a CC50 (Cytotoxicity assay [11]) of 4.5 ± 2.8 µM.
With `C=C(C)[C@@H]1CC[C@]2(C(=O)O)CC[C@]3(C)[C@H](CC[C@@H]4[C@@]5(C)CC[C@H](OC(=O)CC(C)(C)C(=O)O)C(C)(C)[C@@H]5CC[C@]43C)[C@@H]12` [BVM, bevirimat, reference compound] the Fold resistance [1] was >67.5 (6) and >67.5 (7).
With `COc1cc2c(cc1Cc1cccc(Cl)c1F)c(=O)c(C(=O)O)cn2[C@H](CO)C(C)C` [EVG, elvitegravir, reference compound] the Fold resistance [1] was >53.8 (3) and >52.9 (3).
